Test results published in paper PMC6476959, “Novel 3,4-Dihydroisocoumarins Inhibit Human P-gp and BCRP in Multidrug Resistant Tumors and Demonstrate Substrate Inhibition of Yeast Pdr5” (Frontiers in Pharmacology, 2019).
“Also recorded” adds a separate entry of the source.

How the values were obtained:
A549 cells = assay: CellTiter-Glo cell viability assay (cytotoxicity), A549; format: cell-based, human; details: for IC50: Homo sapiens, A549, 48 h, mean ± SEM
Protocol: (§1) The human lung adenocarcinoma cell line A549 was cultured in DMEM medium supplemented with 10% fetal bovine serum (FBS), 100 U/mL penicillin and 100 μg/mL streptomycin. P-gp-expressing human colon adenocarcinoma cells HCT-15 were cultured in RPMI 1640 medium supplemented with 10% FBS, 100 U/mL penicillin and 100 μg/mL streptomycin. BCRP-expressing MCF-7/MX human breast adenocarcinoma cells were cultured in DMEM medium supplemented with 10% FBS, 100 U/mL penicillin and 100 μg/mL streptomycin. MRP1-expressing H69AR human small cell lung cancer cells were cultured in RPMI 1640 medium (ATCC modification) supplemented with 20% FBS, 100 U/mL penicillin and 100 μg/mL streptomycin. All cancer cell lines employed have been systematically characterized regarding their respective ABC transporter expression profile ([Sachs et al., 2019]).
(§2) Cytotoxic activity of test compounds was analyzed after 48 h using the CellTiter-Glo Luminescent Cell Viability Assay published previously ([Weber et al., 2017]) in 384-well plates with the following cell densities: A549, MCF-7/MX: 2 × 10^3 cells/well; HCT-15: 3 × 10^3 cells/well; H69AR: 5 × 10^3 cells/well. Pipetting was conducted with the CyBi-Well 96-channel simultaneous pipettor (Analytik Jena AG, Jena, Germany). For generation of dose-response curves and calculation of IC50 values, the four-parameter logistic model was applied.

HCT-15 cells = assay: CellTiter-Glo cell viability assay (cytotoxicity), HCT-15; format: cell-based; details: Homo sapiens, 48 h, P-gp expressing, mean ± SEM
Protocol: as §1, §2

MCF-7/MX cells = assay: CellTiter-Glo cell viability assay (cytotoxicity), MCF-7/MX; format: cell-based; details: Homo sapiens, MCF7/MX; 48 h, BCRP-expressing, mean ± SEM
Protocol: as §1, §2

H69AR cells = assay: CellTiter-Glo cell viability assay (cytotoxicity), H69AR; format: cell-based; details: Homo sapiens, 48 h, MRP1-expressing, mean ± SEM
Protocol: as §1, §2

P-gp = target: T1, P-gp (Homo sapiens, UniProt P08183); assay: P-gp transport assay (calcein-AM) in HCT-15 cells; format: cell-based
T1 construct: endogenous in cells; host or cells: HCT-15 human colon adenocarcinoma cells
T1 sequence (P08183 whole entry): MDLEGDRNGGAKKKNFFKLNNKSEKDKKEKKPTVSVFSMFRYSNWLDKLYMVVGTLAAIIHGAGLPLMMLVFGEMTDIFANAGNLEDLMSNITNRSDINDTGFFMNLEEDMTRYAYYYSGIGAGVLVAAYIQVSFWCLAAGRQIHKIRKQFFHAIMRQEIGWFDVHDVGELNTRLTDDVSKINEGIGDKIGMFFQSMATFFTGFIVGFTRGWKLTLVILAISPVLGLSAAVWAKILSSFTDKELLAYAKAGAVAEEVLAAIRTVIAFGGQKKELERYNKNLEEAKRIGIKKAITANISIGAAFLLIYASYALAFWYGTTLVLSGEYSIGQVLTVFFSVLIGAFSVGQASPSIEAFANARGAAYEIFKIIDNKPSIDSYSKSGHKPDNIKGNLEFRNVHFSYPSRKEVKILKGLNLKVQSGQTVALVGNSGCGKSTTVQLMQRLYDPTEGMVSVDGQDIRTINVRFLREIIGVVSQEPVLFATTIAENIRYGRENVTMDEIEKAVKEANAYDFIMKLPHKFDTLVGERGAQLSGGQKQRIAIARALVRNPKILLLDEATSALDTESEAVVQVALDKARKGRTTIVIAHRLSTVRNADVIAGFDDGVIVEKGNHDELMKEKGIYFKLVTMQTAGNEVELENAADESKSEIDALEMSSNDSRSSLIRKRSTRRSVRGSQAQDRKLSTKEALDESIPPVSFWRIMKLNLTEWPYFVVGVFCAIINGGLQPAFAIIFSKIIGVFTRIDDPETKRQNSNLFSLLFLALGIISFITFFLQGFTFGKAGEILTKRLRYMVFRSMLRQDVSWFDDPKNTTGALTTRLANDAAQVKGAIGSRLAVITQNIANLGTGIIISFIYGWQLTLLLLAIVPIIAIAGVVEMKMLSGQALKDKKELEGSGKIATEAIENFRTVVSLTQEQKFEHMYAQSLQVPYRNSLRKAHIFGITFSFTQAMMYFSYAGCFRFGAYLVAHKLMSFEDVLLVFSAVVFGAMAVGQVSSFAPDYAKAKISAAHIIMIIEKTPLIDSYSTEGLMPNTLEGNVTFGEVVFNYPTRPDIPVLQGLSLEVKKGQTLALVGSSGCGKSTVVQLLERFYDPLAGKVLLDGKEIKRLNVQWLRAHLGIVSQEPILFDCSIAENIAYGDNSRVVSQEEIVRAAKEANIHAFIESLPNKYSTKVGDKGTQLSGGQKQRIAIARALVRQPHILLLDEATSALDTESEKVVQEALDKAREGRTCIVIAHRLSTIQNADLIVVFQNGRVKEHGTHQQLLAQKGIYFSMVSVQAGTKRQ
Protocol: The transport of calcein-AM by P-gp and its modulation by test compounds was analyzed in the P-gp-expressing HCT-15 cell line. 5 × 10^4 cells were seeded in black 96-well plates and incubated at 37°C and 5% CO2 for 24 h. The culture medium was removed and replaced by Hank’s balanced salt solution supplemented with 10 mM HEPES. Test compounds, 2.5 μM PSC833 (positive control) or 0.5% DMSO (negative control) were added in triplicates and incubated for 30 min at 37°C and 5% CO2. The substrate calcein-AM was added (final concentration 0.5 μM) and the fluorescence (excitation 485 nm, emission 520 nm) was measured over 3 h with the Infinite m1000 pro microplate reader (Tecan Group AG, Männedorf, Switzerland) at 37°C. The transport activity of P-gp was analyzed by determining the slope of the linear part of the fluorescence-time curve (0–30 min) using linear regression. Normalization of the data to PSC833 (100% inhibition) and DMSO (0% inhibition) was performed.

Pdr5 = target: T2, Pdr5 (Saccharomyces cerevisiae, UniProt P33302); assay: Pdr5 transport assay (R6G) in plasma membrane preparations; format: biochemical; set-up: R6G transport activity of Pdr5 WT inhibited to (initial screen): dose or concentration left out as unconfirmed; details: for R6G transport activity of Pdr5 WT inhibited to (initial screen): relative to Pdr5 WT without compound
T2 construct: effect on (A) the transport activity of Pdr5 WT and (B) their effect on the ATPase activity; made in house; host or cells: S. cerevisiae YRE1001 (pdr1-3 background), isolated plasma membranes
T2 sequence (P33302 whole entry): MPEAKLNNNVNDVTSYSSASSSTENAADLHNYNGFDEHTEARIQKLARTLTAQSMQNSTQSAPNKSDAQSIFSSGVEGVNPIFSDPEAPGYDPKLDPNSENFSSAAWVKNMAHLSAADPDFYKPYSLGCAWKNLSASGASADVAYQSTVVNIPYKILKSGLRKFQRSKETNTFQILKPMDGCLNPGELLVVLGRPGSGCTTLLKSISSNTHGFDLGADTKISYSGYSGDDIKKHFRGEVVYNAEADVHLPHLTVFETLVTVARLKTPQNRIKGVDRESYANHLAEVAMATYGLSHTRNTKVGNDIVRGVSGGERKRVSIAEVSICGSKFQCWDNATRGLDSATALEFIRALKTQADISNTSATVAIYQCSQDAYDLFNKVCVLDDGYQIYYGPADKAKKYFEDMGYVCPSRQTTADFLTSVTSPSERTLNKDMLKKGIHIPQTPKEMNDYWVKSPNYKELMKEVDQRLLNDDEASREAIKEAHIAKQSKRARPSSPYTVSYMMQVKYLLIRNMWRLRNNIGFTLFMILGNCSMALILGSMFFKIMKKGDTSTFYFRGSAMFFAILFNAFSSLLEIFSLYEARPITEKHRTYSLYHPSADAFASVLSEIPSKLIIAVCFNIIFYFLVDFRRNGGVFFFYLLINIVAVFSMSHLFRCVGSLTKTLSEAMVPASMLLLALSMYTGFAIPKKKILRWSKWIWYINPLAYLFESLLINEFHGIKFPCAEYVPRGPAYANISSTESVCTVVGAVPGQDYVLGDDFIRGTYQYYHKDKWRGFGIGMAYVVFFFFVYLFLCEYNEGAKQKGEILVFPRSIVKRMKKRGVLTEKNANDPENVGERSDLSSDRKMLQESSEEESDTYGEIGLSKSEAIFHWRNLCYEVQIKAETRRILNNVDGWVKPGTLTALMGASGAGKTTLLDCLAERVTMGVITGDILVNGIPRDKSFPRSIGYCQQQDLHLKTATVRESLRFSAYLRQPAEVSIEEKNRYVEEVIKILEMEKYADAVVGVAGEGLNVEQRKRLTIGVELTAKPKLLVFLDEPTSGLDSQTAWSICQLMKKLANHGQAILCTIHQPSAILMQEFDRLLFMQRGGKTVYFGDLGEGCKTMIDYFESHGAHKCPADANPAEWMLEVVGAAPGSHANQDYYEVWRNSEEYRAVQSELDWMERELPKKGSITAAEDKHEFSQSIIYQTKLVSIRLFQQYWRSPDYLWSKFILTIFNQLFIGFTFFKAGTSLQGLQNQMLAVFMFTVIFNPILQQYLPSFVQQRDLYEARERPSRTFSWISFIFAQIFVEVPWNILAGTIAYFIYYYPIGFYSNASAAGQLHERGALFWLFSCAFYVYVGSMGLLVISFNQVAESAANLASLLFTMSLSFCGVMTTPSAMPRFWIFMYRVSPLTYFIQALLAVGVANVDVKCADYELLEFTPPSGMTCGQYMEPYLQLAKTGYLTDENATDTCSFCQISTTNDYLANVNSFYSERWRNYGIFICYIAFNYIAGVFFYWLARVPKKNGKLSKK
Protocol: Saccharomyces cerevisiae cells expressing Pdr5 WT or the E1036Q (EQ) mutant were cultured to an OD600 of 1.5 in YPD-media at 25°C. The nitrogen source was replenished by addition of a 10th volume of 5x YP (50 g/l yeast extract, 100 g/l peptone). The cells were grown to an OD of 3.5 and harvested (5000 ×g at 4°C for 15 min). The isolation of Pdr5 containing PMs was performed as described ([Kolaczkowski et al., 1996]; [Ernst et al., 2008]).
Active transport of R6G was measured according to the protocol developed by [Kolaczkowski et al. (1996)], using a Tecan Infinite 200 pro reader (Tecan Group AG, Männedorf, Switzerland). 6 μg of the isolated PM containing Pdr5 were resuspended in 200 μl of the transport buffer (50 mM HEPES, pH 7.0, 5 mM MgCl2, 10 mM NaN3, and 150 nM R6G) and incubated in a black 96-well plate at 30°C. 5 μl of the test compound were added at the indicated concentrations. Active transport was initiated by the addition of 10 μl 200 mM ATP and fluorescence intensity was recorded in 15 s-intervals for 20 min (excitation wavelength at 524 nm, emission wavelength at 558 nm, number of flashes 30, integration time 2000 μs). IC50 determination was performed with a serial dilution of the test compounds.

COc1cc(O)c2c(c1)C[C@H](C)OC2=O [Angelicoin B (4), angelicoin B]
IC50 (A549 cells): > 100 µM | IC50 (HCT-15 cells): > 100 µM | IC50 (MCF-7/MX cells): > 100 µM | IC50 (H69AR cells): > 100 µM | Inhibition of P-gp (in words) (P-gp): did not differ significantly from those of derivative 14 | R6G transport activity of Pdr5 WT inhibited to (initial screen) (Pdr5; listed as 4): no effect | R6G transport activity of Pdr5 WT inhibited to (initial screen) (Pdr5; listed as angelicoin B (4)): did not interfere with Pdr5-mediated R6G transport

COc1cc(O)c2c(c1)CCOC2=O [Compound 14]
IC50 (A549 cells): > 100 µM | IC50 (HCT-15 cells): > 100 µM | IC50 (MCF-7/MX cells): > 100 µM | IC50 (H69AR cells): > 100 µM | Relative inhibition of P-gp, span over the tested concentrations (P-gp; different concentrations, normalized to PSC833): up to 10% | R6G transport activity of Pdr5 WT inhibited to (initial screen) (Pdr5): did not interfere with Pdr5-mediated R6G transport; also recorded: no effect

CCCCCC1Cc2cc(OC)cc(O)c2C(=O)O1 (centres unmarked) [Compound 16]
IC50 (A549 cells): 78.6 ± 2.2 µM | IC50 (HCT-15 cells): > 100 µM | IC50 (MCF-7/MX cells): > 100 µM | IC50 (H69AR cells): 88.5 ± 4.6 µM | inhibition at 10 μM (P-gp; human, P-gp-expressing HCT-15 cells, probe calcein-AM (0.5 μM), 10 μM, normalized to 2.5 μM PSC833 (100%) and DMSO (0%), read-out: Relative inhibition of P-gp): 36.3 ± 5.3% | inhibition at 50 μM (P-gp; human, P-gp-expressing HCT-15 cells, probe calcein-AM (0.5 μM), 50 μM, normalized to 2.5 μM PSC833 (100%) and DMSO (0%), read-out: Relative inhibition of P-gp): 81.2 ± 2.7% | IC50 (Pdr5): 15.1 ± 2.1 µM | R6G transport activity of Pdr5 WT inhibited to (initial screen) (Pdr5): inhibit the transport of R6G completely; also recorded: inhibit the transport activity of Pdr5 WT completely

CCCCCC1Cc2cc(OC)cc(OC)c2C(=O)O1 (centres unmarked) [Compound 16a]
fold lower IC50 value than compound 16 (A549 cells; A549 cells): about 1.5 fold | IC50 (A549 cells): 53.6 ± 5.6 µM | IC50 (HCT-15 cells): > 100 µM | IC50 (MCF-7/MX cells): 10.6 ± 0.9 µM | IC50 (H69AR cells): > 100 µM | inhibition at 20 μM (P-gp; human, P-gp-expressing HCT-15 cells, probe calcein-AM (0.5 μM), 20 μM, normalized to 2.5 μM PSC833 (100%) and DMSO (0%), read-out: Relative inhibition of P-gp): > 20% | IC50 (Pdr5): 14.6 ± 3.9 µM | R6G transport activity of Pdr5 WT inhibited to (initial screen) (Pdr5): inhibit the transport of R6G completely; also recorded: inhibit the transport activity of Pdr5 WT completely
